Results on nine compounds are retold here after EP4818194A1, “CHEMICALLY MODIFIED POLYPEPTIDE” (priority 2023, dated 2025).

pEC50: −log10 of the molar value. Where a SMILES comes first, the peptide text is derived from it. Where no end group is shown, it is not given here. [ ]: non-standard residue; d: D form. pY = N[C@@H](Cc1ccc(OP(=O)(O)O)cc1)C(=O)O; NMeY = CN[C@@H](Cc1ccc(O)cc1)C(=O)O; Tle = CC(C)(C)[C@H](N)C(=O)O; Aib = CC(C)(N)C(=O)O

Data set [1] is described as follows: Pharmacokinetic characteristics in rats after intravenous administration (plasma, LC-MS/MS). The settings on record: rat, SD rats, tail vein, 10 mg/kg; for Vd: read-out: Vss. It is filed as in vivo. The protocol:
Intravenous administration: Three SD rats per group were administered the compounds of Example 1, Example 2, Example 3, Example 6, Example 7, Example 17, and Example 19 via the tail vein, respectively, at a dose of 10 mg/kg. all SD rats were allowed free access to food and water after administration. Plasma was collected 3 min, 10 min, 30 min, 1 h, 2 h, 6 h, 10 h, and 24 h after administration, with 3 rats per time point.
Sample processing: Whole blood was anticoagulated with EDTA-K2. Within 30 minutes of collection, the blood was centrifuged at 3000g for 10 minutes at 2-8°C. After centrifugation, the separated plasma was transferred to new 1.5 mL centrifuge tubes and stored at -80°C.
Analytical method: The concentrations of each compounds in rat plasma were determined by LC-MS/MS using Shimadzu LC30AD and AB Sciex QTRAP 6500+instruments. The relevant pharmacokinetic parameters after administration were calculated. Table 5: Pharmacokinetic parameters after administration

Another data set has as its system PC-12 cells. It is filed as cell-based. The settings on record: for Normalized cell viability (%): PC-12 cells, 10 nM polypeptide pretreatment for 30 minutes, then glutamate stimulation for 24 hours, normalized to positive control MK-801 and glutamate group. The method, then:
PC-12 cells (a […] cell line derived from rat adrenal medulla) were cultured in DMEM/F12 complete medium until eaching 80-90% confluence. The cells were then digested, collected, resuspended, and seeded at density of 5 × 10^4 cells per well in a 24-well plate precoated with coverslips. Following 26 hours of cell culture, excitotoxic cell death was induced by glutamate stimulation. For model establishment: an appropriate amount of glutamate was weighed and dissolved in DMEM/F12 medium to prepare a stock solution. After filtration, the stock solution was diluted with culture medium and administered to the cells via medium replacement. The cells were further incubated for 24 hours after administration.
Prior to glutamate modeling, cells incubated as described in the previous step were pretreated with 10 nM of the polypeptide compound according to the present application for 30 minutes, followed by glutamate stimulation.
Cells treated with the polypeptide compound according to the present application were stained with propidium iodide to assess cell death. After discarding the culture medium, the cells were washed with PBS, and propidium iodide/Hoechst was added. After incubating for 30 minutes, the cells were removed and the staining solution was discarded. After washing with PBS, the cells were fixed and mounted, and subjected to image acquisition under a fluorescence microscope. The number of propidium iodide-positive cells and Hoechst-positive cells in the acquired images was counted to calculate the cell viability. MK-801 was used as the positive control compound. The normalized cell viability was calculated using the following formula: (cell viability of the compound group - cell viability of the glutamate group) / (cell viability of the positive control group - cell viability of the glutamate group) × 100%.
Based on the above dose-response studies of the compound, the inhibitory effects of different small-molecule compounds at the same dose (10 nM) against excitotoxic death in PC-12 neurons cells were further compared. […]

As for `CN[C@@H](Cc1ccc(O)cc1)C(=O)NCC(=O)N[C@@H](CCCNC(=N)N)C(=O)N[C@@H](CCCCN)C(=O)N[C@@H](CCCCN)C(=O)N[C@@H](CCCNC(=N)N)C(=O)N[C@@H](CCCNC(=N)N)C(=O)N[C@@H](CCC(N)=O)C(=O)N[C@@H](CCCNC(=N)N)C(=O)N[C@@H](CCCNC(=N)N)C(=O)N[C@@H](CCCNC(=N)N)C(=O)N[C@@H](CCCCN)C(=O)N[C@@H](CCCCN)C(=O)N[C@@H](CC(N)=O)C(=O)N[C@@H](CCCNC(=N)N)C(=O)N[C@@H](CC(N)=O)C(=O)N[C@@H](CCCCN)C(=O)N[C@@H](CC(C)C)C(=O)N[C@@H](CCCNC(=N)N)C(=O)N[C@@H](CCCNC(=N)N)C(=O)N[C@@H](CCC(N)=O)C(=O)N[C@@H](Cc1c[nH]cn1)C(=O)N[C@@H](CO)C(=O)N[C@@H](Cc1ccc(O)cc1)C(=O)O` [Example 2] (H-[NMeY]GRKKRRQRRRKKNRNKLRRQHSY-OH), in data set [1], the MRT amounted to 1.84 h, the half-life is 1.73 h and the Vd came to 3.94 L/kg.
For the compound `CC(C)C[C@H](NC(=O)[C@H](CCCCN)NC(=O)[C@H](CC(N)=O)NC(=O)[C@H](CCCNC(=N)N)NC(=O)[C@H](CC(N)=O)NC(=O)[C@H](CCCCN)NC(=O)[C@H](CCCCN)NC(=O)[C@H](CCCNC(=N)N)NC(=O)[C@H](CCCNC(=N)N)NC(=O)[C@H](CCCNC(=N)N)NC(=O)[C@H](CCC(N)=O)NC(=O)[C@H](CCCNC(=N)N)NC(=O)[C@H](CCCNC(=N)N)NC(=O)[C@H](CCCCN)NC(=O)[C@H](CCCCN)NC(=O)[C@H](CCCNC(=N)N)NC(=O)CNC(=O)[C@@H](N)Cc1ccc(OP(=O)(O)O)cc1)C(=O)N[C@@H](CCCNC(=N)N)C(=O)N[C@@H](CCCNC(=N)N)C(=O)N[C@@H](CCC(N)=O)C(=O)N[C@@H](Cc1c[nH]cn1)C(=O)N[C@@H](CO)C(=O)N[C@@H](Cc1ccc(O)cc1)C(=O)O` [Example 3] (H-[pY]GRKKRRQRRRKKNRNKLRRQHSY-OH), in data set [1], the MRT stood at 1.71 h, the half-life is 1.28 h and the Vd was found to be 7.9 L/kg.
Regarding `CN[C@@H](Cc1ccc(O)cc1)C(=O)NCC(=O)N[C@@H](CCCNC(=N)N)C(=O)N[C@@H](CCCCN)C(=O)N[C@@H](CCCCN)C(=O)N[C@@H](CCCNC(=N)N)C(=O)N[C@@H](CCCNC(=N)N)C(=O)N[C@@H](CCC(=O)O)C(=O)N[C@@H](CCCNC(=N)N)C(=O)N[C@@H](CCCNC(=N)N)C(=O)N[C@@H](CCCNC(=N)N)C(=O)N[C@@H](CCCCN)C(=O)N[C@@H](CCCCN)C(=O)N[C@@H](CC(=O)O)C(=O)N[C@@H](CCCNC(=N)N)C(=O)N[C@@H](CC(=O)O)C(=O)N[C@@H](CCCCN)C(=O)N[C@@H](CC(C)C)C(=O)N[C@@H](CCCNC(=N)N)C(=O)N[C@@H](CCCNC(=N)N)C(=O)N[C@@H](CCC(=O)O)C(=O)N[C@@H](Cc1c[nH]cn1)C(=O)N[C@@H](CO)C(=O)N[C@@H](Cc1ccc(O)cc1)C(N)=O` [Example 19] (H-[NMeY]GRKKRRERRRKKDRDKLRREHSY-NH2), in data set [1], the MRT stood at 1.73 h, the half-life is 1.16 h and the Vd was 9.11 L/kg.
As to `CN[C@@H](Cc1ccc(O)cc1)C(=O)NC(C)(C)C(=O)N[C@@H](CCCNC(=N)N)C(=O)N[C@@H](CCCCN)C(=O)N[C@@H](CCCCN)C(=O)N[C@@H](CCCNC(=N)N)C(=O)N[C@@H](CCCNC(=N)N)C(=O)N[C@@H](CCC(=O)O)C(=O)N[C@@H](CCCNC(=N)N)C(=O)N[C@@H](CCCNC(=N)N)C(=O)N[C@@H](CCCNC(=N)N)C(=O)N[C@@H](CCCCN)C(=O)N[C@@H](CCCCN)C(=O)N[C@@H](CC(=O)O)C(=O)N[C@@H](CCCNC(=N)N)C(=O)N[C@@H](CC(=O)O)C(=O)N[C@@H](CCCCN)C(=O)N[C@H](C(=O)N[C@@H](CCCNC(=N)N)C(=O)N[C@@H](CCCNC(=N)N)C(=O)N[C@@H](CCC(=O)O)C(=O)N[C@@H](Cc1c[nH]cn1)C(=O)N[C@@H](CO)C(=O)N[C@@H](Cc1ccc(O)cc1)C(N)=O)C(C)(C)C` [Example 24, Me-YAibRKKRRERRRKKDRDKTleRREHSY-NH2] (H-[NMeY][Aib]RKKRRERRRKKDRDK[Tle]RREHSY-NH2), the pEC50 in the data set with PC-12 cells (26 h) is 8.87.
Ac-YGRKKRRQRRRKKNRNKLRRQHSY [Example 4]: in the data set with PC-12 cells, the “Normalized cell viability (%)” value is on record as 85.00%.
Take “Ac-YGRKKRRQRRRKKNRNKLRRQHSY-NH2 [Example 7]”: in data set [1], the MRT stood at 1.93 h, the half-life was 1.51 h and the Vd was determined as 3.58 L/kg.
With YGRKKRRERRRKKDRNKLRRQHSY [Example 17], in data set [1], the MRT stood at 2.29 h, the half-life is 1.66 h and the Vd came out at 23.1 L/kg.
With “YGRKKRRQRRRKKNRNKLRRQHSY [Example 1, reference compound]”, in data set [1], the MRT was found to be 0.87 h, the half-life was 0.76 h and the Vd turned out to be 1.29 L/kg. Besides, the “Normalized cell viability (%)” value in the data set with PC-12 cells is on record as 41.00%.
On to “YGRKKRRQRRRKKNRNKLRRQHSY-NH2 [Example 6]”, for which, in data set [1], the MRT was 1.65 h, the half-life is 1.23 h and the Vd came out at 2.53 L/kg.
